{"source": "patent US20020091148A1", "about": "“3-substituted indole antiproliferative angiogenesis inhibitors” (priority 2000, published 2002)", "key": {"certain tumor models": {"test_system": "certain tumor models", "settings": "Adv. Cancer Res. 2000, 79, 1-38; cited from earlier work"}}}
{"smiles": "O=C(NN=Cc1ccc(Cl)cc1)c1[nH]c2ccccc2c1Cc1ccccc1", "note": "[Example 103, 3-benzyl-N′-((4-chlorophenyl)methylidene)-1H-indole-2-carbohydrazide]", "values": [{"measurement": "melting point", "value": "221 to 222", "unit": "°C"}]}
{"smiles": "O=C(NN=Cc1ccc(Br)cc1)c1[nH]c2ccccc2c1Cc1ccccc1", "note": "[Example 104, 3-benzyl-N′-((4-bromophenyl)methylidene)-1H-indole-2-carbohydrazide]", "values": [{"measurement": "melting point", "value": "227 to 229", "unit": "°C"}]}
{"smiles": "CCN(CC)C(=O)c1c(C(=O)NN=Cc2ccc(Cl)cc2)[nH]c2ccccc12", "note": "[Example 105, 2-((2-(4-chlorobenzylidene)hydrazino)carbonyl)-N,N-diethyl-1H-indole-3-carboxamide]", "values": [{"measurement": "melting point", "value": "255 to 257", "unit": "°C"}]}
{"smiles": "O=C(NN=Cc1ccc(Cl)cc1)c1[nH]c2ccccc2c1C(=O)Nc1ccccc1", "note": "[Example 107, 2-((2-(4-chlorobenzylidene)hydrazino)carbonyl)-N-phenyl-1H-indole-3-carboxamide]", "values": [{"measurement": "melting point", "value": "> 260", "unit": "°C"}]}
{"smiles": "CSc1c(C(=O)NN=Cc2ccc(Cl)cc2)[nH]c2ccccc12", "note": "[Example 108, N′-((4-chlorophenyl)methylidene)-3-(methylthio)-1H-indole-2-carbohydrazide]", "values": [{"measurement": "melting point", "value": "232 to 235", "unit": "°C"}]}
{"smiles": "CSc1c(C(=O)NN=Cc2nccs2)[nH]c2ccccc12", "note": "[Example 109, 3-(methylthio)-N′-(1,3-thiazol-2-ylmethylidene)-1H-indole-2-carbohydrazide]", "values": [{"measurement": "melting point", "value": "216 to 222", "unit": "°C"}]}
{"smiles": "CS(=O)(=O)c1c(C(=O)NN=Cc2ccc(Cl)cc2)[nH]c2ccccc12", "note": "[Example 110, N′-((4-chlorophenyl)methylidene)-3-(methylsulfonyl)-1H-indole-2-carbohydrazide]", "values": [{"measurement": "melting point", "value": "> 280", "unit": "°C"}]}
{"smiles": "CS(=O)(=O)c1c(C(=O)NN=Cc2nccs2)[nH]c2ccccc12", "note": "[Example 111, 3-(methylsulfonyl)-N′-(1,3-thiazol-2-ylmethylidene)-1H-indole-2-carbohydrazide]", "values": [{"measurement": "melting point", "value": "> 280", "unit": "°C"}]}
{"smiles": "COc1c(C(=O)NN=Cc2ccc(Cl)cc2)[nH]c2ccccc12", "note": "[Example 118, N′-((4-chlorophenyl)methylidene)-3-methoxy-1H-indole-2-carbohydrazide]", "values": [{"measurement": "melting point", "value": "249 to 251", "unit": "°C"}]}
{"smiles": "O=C(NN=Cc1ccc(Cl)cc1)c1[nH]c2ccccc2c1Br", "note": "[Example 119, 3-bromo-N′-((4-chlorophenyl)methylidene)-1H-indole-2-carbohydrazide]", "values": [{"measurement": "melting point", "value": "> 250", "unit": "°C"}]}
{"smiles": "CS(=O)(=O)c1c(C(=O)NN=Cc2cccc3ccccc23)[nH]c2ccccc12", "note": "[Example 135, 3-(methylsulfonyl)-N′-(1-naphthylmethylidene)-1H-indole-2-carbohydrazide]", "values": [{"measurement": "melting point", "value": "> 250", "unit": "°C"}]}
{"smiles": "CN(C)C(=O)c1c(C(=O)NN=Cc2ccc3ccccc3c2)[nH]c2ccccc12", "note": "[Example 136, N,N-dimethyl-2-((2-(2-naphthylmethylene)hydrazino)carbonyl)-1H-indole-3-carboxamide]", "values": [{"measurement": "melting point", "value": "256 to 260", "unit": "°C"}]}
{"smiles": "CN(N=Cc1ccco1)C(=O)c1[nH]c2ccccc2c1-c1ccccc1", "note": "[Example 149, N′-(2-furylmethylidene)-N-methyl-3-phenyl-1H-indole-2-carbohydrazide]", "values": [{"measurement": "melting point", "value": "196 to 199", "unit": "°C"}]}
{"smiles": "CN(N=Cc1ccc(C#N)cc1)C(=O)c1[nH]c2ccccc2c1-c1ccccc1", "note": "[Example 150, N′-((4-cyanophenyl)methylidene)-N-methyl-3-phenyl-1H-indole-2-carbohydrazide]", "values": [{"measurement": "melting point", "value": "194 to 196", "unit": "°C"}]}
{"smiles": "CN(N=Cc1ccc(Br)cc1)C(=O)c1[nH]c2ccccc2c1-c1ccccc1", "note": "[Example 151, N′-((4-bromophenyl)methylidene)-N-methyl-3-phenyl-1H-indole-2-carbohydrazide]", "values": [{"measurement": "melting point", "value": "210 to 212", "unit": "°C"}]}
{"smiles": "CN(N=Cc1cnc[nH]1)C(=O)c1[nH]c2ccccc2c1-c1ccccc1", "note": "[Example 152, N′-(1H-imidazol-5-ylmethylidene)-N-methyl-3-phenyl-1H-indole-2-carbohydrazide]", "values": [{"measurement": "melting point", "value": "248 to 250", "unit": "°C"}]}
{"smiles": "Cc1cc(C)c(/C=C2\\C(=O)Nc3ccccc32)[nH]1", "note": "[SU5416]", "values": [{"measurement": "in vivo activity against certain tumor models", "setting": "certain tumor models", "value": "good in vivo activity"}]}
